# Experiment: Ability to inhibit blood platelet aggregation of human platelet-rich plasma induced by TP-receptor agonist U 46619
row,SMILES,IC50 [nM]
1,O=C(O)COC/C=C1/C[C@H]2C[C@@H](O)[C@H](C=NNC(=O)Nc3ccccc3)[C@H]2C1,1400
2,O=C(O)CCC/C=C1/CC2CC(O)C([CH+][N-]NC(=O)Nc3ccc([N+](=O)[O-])cc3)C2C1 (stereo unspecified),50
3,O=C(O)CCC/C=C1/C[C@H]2C[C@@H](O)[C@H](C=NNC(=O)Nc3ccccc3)[C@H]2C1,100
4,O=C(O)CCC/C=C1/C[C@H]2CC[C@H](C=NNC(=O)Nc3ccccc3)[C@H]2C1,2300
5,O=C(O)CC/C=C1\CC2CC(O)C([CH+][N-]NC(=O)Nc3ccc([N+](=O)[O-])cc3)C2C1 (stereo unspecified),520
6,O=C(O)CCC/C=C1/CC2CCC([CH+][N-]NC(=O)Nc3ccc([N+](=O)[O-])cc3)C2C1 (stereo unspecified),580
7,O=C(O)CCC/C=C1\C[C@H]2CC[C@H](C=NNC(=O)Nc3cccc(Cl)c3)[C@H]2C1,6500
8,O=C(O)CCC/C=C1\C[C@H]2CC[C@H](C=NNC(=O)Nc3ccc(Cl)c(Cl)c3)[C@H]2C1,9000
9,O=C(O)COC/C=C1\C[C@H]2C[C@@H](O)[C@H](C=NNC(=O)Nc3ccccc3)[C@H]2C1,6000
10,O=C(O)CCC/C=C1\C[C@H]2CC[C@H](C=NNC(=O)Nc3ccccc3)[C@H]2C1,12000
11,O=C(O)CC/C=C1\C[C@H]2C[C@@H](O)[C@H](C=NNC(=O)Nc3ccccc3)[C@H]2C1,26000
12,O=C(O)CC/C=C1\C[C@H]2C[C@@H](O)[C@H](C=NNC(=O)Nc3cccc(Cl)c3)[C@H]2C1,5200
13,O=C(O)COC/C=C1\C[C@H]2C[C@@H](O)[C@H](C=NNC(=O)Nc3cccc(Cl)c3)[C@H]2C1,1600
14,O=C(O)CCC/C=C1\C[C@H]2C[C@@H](O)[C@H](C=NNC(=O)Nc3cccc(Cl)c3)[C@H]2C1,130
15,O=C(O)CCC/C=C1/C[C@H]2CC[C@H](C=NNC(=O)Nc3ccc(Cl)c(Cl)c3)[C@H]2C1,1800
16,O=C(O)CCC/C=C1\C[C@H]2C[C@@H](O)[C@H](C=NNC(=O)Nc3ccc(Cl)c(Cl)c3)[C@H]2C1,200
